Assay results as given in patent US10287259B2, “Selenazolidine and thiazolidine compounds for treating cancer and other diseases” (The Penn State Research Foundation, priority 2016, dated 2019).

Assays:
Assay type in all cases: cell-based
[1] = tested on: Panc-1 cells; assay: MTT cell viability assay, Panc-1; settings: for IC50: Homo sapiens
Description: (§1) MTT (3-(4,5-dimethylthiazol-2-yl)-2,5-diphenyltetrazolium) assay was performed to determine the effect of AS-10 on cancer cell viability (Plano et al., 2016, J. Med. Chem. 1946-1959; Alcolea et al., 2012, Eur. J. Med. Chem. 113:134-144; Kumar et al., 2014, Eur. J. Med. Chem. 81:267-276). Briefly, 3×10^3 cells were treated with different concentrations of AS-10 in triplicate in a 96-well plate for different time points. MTT solution (20 μL of 5.0 mg/mL solution) was added to each well, three hours prior to termination time point and incubated at 37° C. Resultant formazan crystals, at termination time point, were dissolved in 50 μL DMSO. The plate was subjected to a 96-well multiscanner (Dynex Technologies, MRX Revelation; Chantilly, Va., USA) for measuring the optical densities at 570 nm and 630 nm. IC50 values were determined by performing non-linear regression using Graphpad Prism software.
To test the anti-cancer activity of AS-10 in pancreatic cancer (PC) cell lines, a MTT assay was performed. PC cell lines, Panc-1 and BxPC3, were treated with AS-10 at different doses at different time points (24, 48, and 72 h). Resulting cells were subjected to MTT cell viability assay. […] Panc-1 cells were treated with different doses of AS-10 for 48 h. After 48 h, live cells were counted and plated in a new petri dish. Cells were allowed to form colonies for 17 days. At the end of 17 days the colonies were counted and compared to the untreated cells.

[2] = tested on: BxPC3 cells; assay: MTT cell viability assay, BxPC3; settings: Homo sapiens, BXPC-3, different time points (24, 48, 72 h)
Description: as §1
To test the anti-cancer activity of AS-10 in pancreatic cancer (PC) cell lines, a MTT assay was performed. PC cell lines, Panc-1 and BxPC3, were treated with AS-10 at different doses at different time points (24, 48, and 72 h). Resulting cells were subjected to MTT cell viability assay. […] After 48 h, live cells were counted and plated in a new petri dish. […] At the end of 17 days the colonies were counted and compared to the untreated cells.

[3] = tested on: Panc-1 cells; assay: Muse Live/dead Annexin V assay; settings: Panc-1, 48 h; AS-10 2.5 μM, gemcitabine 50 μM
Description: Muse Annexin V & Dead Cell kit was used to determine the apoptosis cells in AS-10 treated Panc-1 cells (Plano et al., 2016, J. Med. Chem. 1946-1959). The Muse Annexin V & Dead cell assay contains Annexin V to detect phosphatidylserine (PS) on the outer surface of cells. The kit also contains a dead cell marker, 7-amino-actinomycin D (7-AAD). […] In brief, Panc-1 (1.5×10^5) cells were treated with a given dose of AS-10 or DMSO for appropriate time (0, 6, 12, 24, 36, or 48 h). Both floating cells as well as adherent cells were collected and subjected for Annexin V staining using Muse Annexin V & Dead Cell kit with Muse cell analyzer (EMD Millipore, Billerica, Mass., USA). The obtained data were analyzed using Muse 1.4 software.

[4] = tested on: Panc-1 cells; assay: Colony formation assay; settings: 48 h treatment, colonies for 17 days
Description: Crystal violet staining method was utilized for performing colony formation assay (Franken et al., 2006, Nat. protoc. 1:2315-2319). In brief, Panc-1 cells were treated with vehicle control (DMSO). 2.5 μM or 10 μM of AS-10 for 48 h. After 48 h treatment period, cells were trypsinized and live cells were counted using tryphan blue dye exclusion assay. Tissue culture plates of size 60×15 mm were seeded with 100 live cells from vehicle treated and 5000 live cells from AS-10 treated cells. Cells were allowed to form colonies for 17 days in DMEM free from DMSO or AS-10 at 37° C. in a 5% CO2 chamber. After 17 days' colonies were stained with 0.5% alcoholic crystal violet. Percentage Plating efficiency (PE) was calculated by the formula: % PE=number of colonies*100/number of cells plated. Data plotted as % relative PE.

[5] = tested on: NF-κB; assay: Electrophoretic mobility shift assay (EMSA); settings: Panc-1, 6 h pretreatment, TNF-α 30 min
Description: To determine NF-κB activation, Panc-1 (1×10^6) cells were treated with different doses of AS-10 for 6 h. Thirty minutes before termination cells were stimulated with 100 ng/mL TNF-α (which is about 3.9 nM in media after addition). At the end of thirty minutes, cells were immediately stored on ice. Nuclear and cytosolic extracts were prepared as described previously (Pandey et al., 2007, J. Biol. Chem. 282: 17340-17350). Nuclear lysates were subjected to EMSA following the protocol (Pandey et al., 2007, J. Biol. Chem. 282: 17340-17350). The dried gels were exposed to X-ray films at −80° C. for exposure.

[6] = tested on: Panc-1 cells; assay: Western blot analysis of Panc-1 lysates
Description: Whole-cell lysates were made by subjecting AS-10 treated Panc-1 cells to RIPA lysis buffer (Thermo Scientific, USA) containing protease (Roche, USA) and phosphatase inhibitor cocktails (Sigma-Aldrich, USA) (Plano et al., 2016, J. Med. Chem. 1946-1959). Lysates were spun at 15,000 rpm for 10 minutes. Resulting supernatant was stored at −80° C. until use. NuPAGE gel 4-12% (Life Technologies, Carlsbad, Calif.) was used to resolve the lysates, followed by electro-transfer to PVDF membrane. After the transfer membrane was blocked with 5% non-fat milk and probed with different antibodies. Protein of interest were detected by using enhanced Chemiluminescent reagent (Life technologies, USA). Blots were stripped using Restore Western blot stripping buffer (Thermo Scientific, USA) to save time and samples.

[7] = tested on: different cancer cell types (breast, colorectal, lung, melanoma, ovarian, prostate); assay: MTT assay in different cancer cell lines; settings: 24, 48 and 72 h
Description: as §1

[8] = tested on: prostate cancer cells (LnCAP, PC-3 and DU-145); assay: Apoptosis in prostate cancer cells
[9] = tested on: androgen receptor (AR) signaling in LNCaP cells; assay: AR / PSA and DNA damage response proteins in LNCaP cells

For `CC(=O)Oc1ccccc1C(=O)/N=C1\[Se]CCN1C(=O)c1ccccc1OC(C)=O` [AS-10, 2-((3-(2-acetoxybenzoyl)-1,3-selenazolidin-2-ylidene)carbamoyl)phenyl acetate], the IC50 ([1]; PANC-1, 48 h) was 1000 to 2500 nM, the IC50 ([1]; Panc-1, different time points (24, 48, 72 h)) was 1000 to 5000 nM and the “potency relative to gemcitabine” value ([1]; Panc-1, 48 h) was greater than 500 times. The IC50 [2] was 1000 to 5000 nM, the total apoptotic cells [3] was roughly 25% and the “colonies formed compared to vehicle treated cells” value [4] was “effectively decreased the amount of colonies formed”. For the same compound, the “NF-κB DNA binding (EMSA band)” value [5] was “NF-κB band faded away in a dose dependent manner”, the “cleaved caspase 8 (active)” value [6] was “not detected” and the “cleavage of caspase 9” value ([6]; 10 μM) was “profound cleavage”. For the same compound, the “acetylation of histones H3 and H4” value ([6]; 10 μM, increasing time points) was “able to acetylate histones”, the “cell cycle arrest proteins p21 and p27” value ([6]; 10 μM, from 6 h for p21 and 12 h for p27) was “increase” and the PARP cleavage ([6]; Panc-1, 48 h, low dose AS-10 2.5 μM, gemcitabine 50 μM) was “no effect on PARP cleavage”. The IκBα degradation ([6]; cytosolic lysates, TNF-α stimulation, increasing dose) was “IκBα is not degraded”, the “active caspase 3 (cleaved caspase 3) and cleaved PARP” value ([6]; increasing concentration, 24 h) was “increase” and the “expression of Bcl-xL and Mcl-1” value ([6]; time dependent) was “inhibited the expression”. For the same compound, the “growth of different cancer cell types” value [7] was “effectively inhibited growth”, the “Annexin V staining, caspase 3/7 activity, and PARP cleavage” value ([8]; LNCaP) was “increased” and the “apoptosis induction in prostate cancer cells” value ([8]; LnCAP, PC-3 and DU-145) was “effective at inducing apoptosis in all prostate cancer cells tested”. For the same compound, the “prostate specific antigen (PSA) in cell culture media of LnCAP cells” value [9] was “inhibited”, the “androgen receptor (AR) level” value ([9]; LNCaP) was “down regulated” and the “expression of p21 and p-H2A.X” value ([9]; LNCaP) was “increased the expression”. For the same compound, the “protein level of AR and PSA (Western blot)” value ([9]; LNCaP, concentration-dependent) was “decreased protein level”.
